According to article PMC5636118, “Recombinant laccase from Pediococcus acidilactici CECT 5930 with ability to degrade tyramine” (PLoS ONE, 2017):

Target: T1, Lpa5930; P. acidilactici CECT 5930 laccase (D2EK17 protein) (Pediococcus acidilactici, UniProt Z9B926UHL0)
T1 construct: pET28a, E. coli BL21(DE3)/pGro7; ~60 kDa by SDS-PAGE; D2EK17 is the UniProt entry of the strain 7_4 homologue
T1 sequence (Z9B926UHL0 1-477): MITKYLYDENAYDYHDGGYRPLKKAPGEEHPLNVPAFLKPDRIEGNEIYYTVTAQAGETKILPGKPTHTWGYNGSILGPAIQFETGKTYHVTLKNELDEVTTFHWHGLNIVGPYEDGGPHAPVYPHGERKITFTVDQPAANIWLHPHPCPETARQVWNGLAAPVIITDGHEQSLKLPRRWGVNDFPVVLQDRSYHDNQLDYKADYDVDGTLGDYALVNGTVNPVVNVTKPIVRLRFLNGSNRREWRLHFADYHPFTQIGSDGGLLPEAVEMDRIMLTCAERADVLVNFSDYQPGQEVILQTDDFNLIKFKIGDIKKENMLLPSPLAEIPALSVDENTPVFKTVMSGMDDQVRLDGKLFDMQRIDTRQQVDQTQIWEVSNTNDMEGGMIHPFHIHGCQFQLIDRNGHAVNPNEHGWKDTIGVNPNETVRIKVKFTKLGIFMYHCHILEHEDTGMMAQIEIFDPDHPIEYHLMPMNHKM
Experiment: ABTS oxidation, absorbance at […] nm, Michaelis-Menten fit
Assay type: biochemical
Conditions: acetate buffer pH 4.0, 28°C; apparent Km (abstract)

Km: 1700 µM
SMILES: CCn1c(=NN=c2sc3cc(S(=O)(=O)O)ccc3n2CC)sc2cc(S(=O)(=O)O)ccc21 [ABTS, 2,2′-azino-bis(3-ethylbenzothiazoline-6-sulfonic acid)]
